# Source: patent publication US20250313653A1, “GUEST/HOST INCLUSION COMPLEXES CONTAINING S-NITROSOGLUTATHIONE AND METHODS OF USE THEREOF” (VIRGINIA COMMONWEALTH UNIVERSITY, priority 2022, published 2025)
# “And” between values parts separate entries of the source, which are not always exact repeats. Equal values may be shown once. “Also recorded” adds a separate entry of the source.
# Key:
# [1] = GSNO thermal decomposition via UV-Vis absorption spectroscopy; type: physicochemical; details: for stabilization effect on GSNO (remaining GSNO after 48 h): 2-day experiment, 0.05 M GSNO in 0.05 M PB with 0.1 M CD derivative, dark, 37° C.; for order of enhancement of GSNO stability (reduced decomposition reactivity) by the host CD: 0.1 M GSNO solution containing 0.1 M CD, pH 7.4, 37° C.
# Description: GSNO was synthesized by nitrosation of reduced L-glutathione in acidified nitrite as previously reported.^52 After collecting GSNO precipitates and washing them using cold water and acetone, GSNO powder was vacuum dried for 4 h and stored at −20° C. GSNO powders were dissolved in phosphate buffer (PB) containing the same mole of Na2HPO4 before the pH adjustment. For example, the formal concentration of Na2HPO4 is 0.1 M when the GSNO concentration is 0.1 M. One hundred μM EDTA was always added to each solution before the solution pH was finally adjusted to 7.4 via NaOH. EDTA is a chelating agent to mask Cu^2+, a S-nitrosothiol catalyst that may exist in solvents and chemicals as an impurity.^53 For solutions with reactive agents, BSA, ascorbic acid, or cysteine was added before the pH adjustment. To prepare GSNO-CD solutions, appropriate amounts of CD powders were dissolved into the GSNO solutions prior to the pH adjustment.
# Aqueous GSNO solutions were contained in 1.5 mL disposable polystyrene cuvettes. The cuvette was caped and further sealed with parafilm. The concentrations of GSNO during storage at 37° C. or 25° C. in the dark were monitored by a UV-vis spectrophotometer (Go Direct® Fluorescence/UV-VIS Spectrophotometer) at a wavelength of 545 nm. A 4 W LED white light was used as the light source for the photodecomposition experiment at room temperature. The distance between the light source and the cuvettes was approximately 10 cm. All GSNO decomposition experiments were triplicated, and the GSNO concentration was expressed as mean±standard deviation.
# [2] = in water; cited from earlier work
# fibroblast L929 cells = test: Cytotoxicity test (MTS assay) of lock-solution-filled silicone tubes; type: cell-based, mouse; details: 24-h incubation of L929 cells with silicone tubes filled with the lock solution
# Description: L929 murine fibroblast cells were suspended in complete media (DMEM with 1% penicillin/streptomycin and 10% FBS) before being seeded in a 24-well plate at a concentration of 5×10^5 cells per well. After 24 h of incubation, the attached cells in each well were incubated in fresh media containing a sterilized 1-cm silicone tube (HelixMark® 60-011-07) filled with a lock solution with buffer, GSNO, or GSNO-αCD and with both ends sealed. MTS assays were performed following the manufacturer's procedure after an additional 24-h incubation. Absorbance at 490 nm was measured by a Cytation 3 imaging plate reader (Biotek).
compound,measurement,setting,value
2-hydroxypropyl alpha cyclodextrin [2-hydroxypropyl αCD],stabilization effect on GSNO (remaining GSNO after 48 h),[1],significant stabilization effect
CC(=O)N[C@H](C(=O)O)C(C)(C)SN=O (racemic) [S-Nitroso-N-acetylpenicillamine],aqueous solubility,[2],2.1 mg/mL and < 0.01 M
"CC(O)COC[C@H]1O[C@@H]2O[C@H]3[C@H](O)[C@@H](O)[C@@H](O[C@H]4[C@H](O)[C@@H](O)[C@@H](O[C@H]5[C@H](O)[C@@H](O)[C@@H](O[C@H]6[C@H](O)[C@@H](O)[C@@H](O[C@H]7[C@H](O)[C@@H](O)[C@@H](O[C@H]8[C@H](O)[C@@H](O)[C@@H](O[C@H]1[C@H](O)[C@H]2O)O[C@@H]8COCC(C)O)O[C@@H]7COCC(C)O)O[C@@H]6COCC(C)O)O[C@@H]5COCC(C)O)O[C@@H]4COCC(C)O)O[C@@H]3COCC(C)O (stereo partly drawn) [HP βCD, 2-hydroxypropyl βCD]",order of enhancement of GSNO stability (reduced decomposition reactivity) by the host CD,[1],αCD>γCD>HP βCD
same,order of enhancement of GSNO stability (reduced decomposition reactivity) by the host CD,[1]; listed as hydroxypropyl βCD,αCD>γCD>hydroxypropyl βCD
"OC[C@H]1O[C@@H]2O[C@H]3[C@H](O)[C@@H](O)[C@@H](O[C@H]4[C@H](O)[C@@H](O)[C@@H](O[C@H]5[C@H](O)[C@@H](O)[C@@H](O[C@H]6[C@H](O)[C@@H](O)[C@@H](O[C@H]7[C@H](O)[C@@H](O)[C@@H](O[C@H]1[C@H](O)[C@H]2O)O[C@@H]7CO)O[C@@H]6CO)O[C@@H]5CO)O[C@@H]4CO)O[C@@H]3CO [αCD, alpha cyclodextrin]",order of enhancement of GSNO stability (reduced decomposition reactivity) by the host CD,[1],αCD>γCD>hydroxypropyl βCD; also recorded: αCD>γCD>HP βCD
same,stabilization effect on GSNO (remaining GSNO after 48 h),[1],best
same,cytotoxicity / cell viability (MTS),fibroblast L929 cells,no difference in the cell viability
"OC[C@H]1O[C@@H]2O[C@H]3[C@H](O)[C@@H](O)[C@@H](O[C@H]4[C@H](O)[C@@H](O)[C@@H](O[C@H]5[C@H](O)[C@@H](O)[C@@H](O[C@H]6[C@H](O)[C@@H](O)[C@@H](O[C@H]7[C@H](O)[C@@H](O)[C@@H](O[C@H]8[C@H](O)[C@@H](O)[C@@H](O[C@H]9[C@H](O)[C@@H](O)[C@@H](O[C@H]1[C@H](O)[C@H]2O)O[C@@H]9CO)O[C@@H]8CO)O[C@@H]7CO)O[C@@H]6CO)O[C@@H]5CO)O[C@@H]4CO)O[C@@H]3CO [γCD, gamma cyclodextrin]",order of enhancement of GSNO stability (reduced decomposition reactivity) by the host CD,[1],αCD>γCD>hydroxypropyl βCD; also recorded: αCD>γCD>HP βCD
methyl alpha cyclodextrin [methyl αCD],stabilization effect on GSNO (remaining GSNO after 48 h),[1],significant stabilization effect
